Consider 1 compound from US20090239926A1, “METHODS FOR THE TREATMENT OF PSORIASIS OR PSORIATIC ARTHRITIS USING CYCLOPROPYL-N-CARBOXAMIDE” (priority 2008, published 2009).

Values joined by “and” are separate entries in the source; they are usually repeats but may differ in a detail not shown here. Equal values may be shown once.

Experiment [1] deals with LPS-stimulated monocyte TNF-α production. Nature of the experiment: LPS-induced TNF-α production in monocytes. Type of experiment: cell-based. The settings on record: Homo sapiens, LPS 10 ng/ml, 24 hours. The method, then: LPS-induced TNF-α production in Monocytes: Monocytes separated from human peripheral blood mononuclear cells (PBMCs) were plated into a 96-well flat bottom plate at 1×10^5/well in RPMI (5% heat inactivated fetal calf serum (FCS) and then treated with increasing concentrations of Compound A and control (in triplicate). Following a 30 minute pre-incubation period, the monocytes were stimulated with LPS (10 ng/ml) and cultured for 24 hours at 37° C. in 5% CO2. The supernatants are then harvested and analyzed by ELISA.

The target in experiment [2] is T1, PDE6 from bovine retinal rod outer segments (Bos taurus, UniProt P11541+P23439).
T1 construct: PDE6 from bovine retinal rod outer segments; from tissue; host or cells: bovine retinal rod outer segments
Nature of the experiment: Specificity: PDE6. The format is biochemical. The method, then:
(§1) The specificity of Compound A for PDE4 was assessed by testing at a single concentration (10 μM) against bovine PDE1, human PDE2, PDE3 and PDE5 from human platelets, and PDE6 from bovine retinal rod outer segments.

The test system of experiment [3] is fMLF-induced neutrophil LTB4 production. Nature of the experiment: fMLF-induced neutrophil LTB4 production. The format is cell-based. The settings on record: Homo sapiens, 0.5 h, 1 μM fMLP, 30 minutes. Here is the method:
Formyl-Met-Leu-Phe (fMLP, Sigma) is a bacterially derived peptide that activates neutrophils to rapidly degranulate, migrate, and adhere to endothelial cells. Among the contents of the neutrophil granule is leukotriene B4 (LTB4), a product of arachidonic acid metabolism and itself a neutrophil stimulant. Compound A was tested for the ability to block fMLF-induced neutrophil LTB4 production.
Human neutrophils were isolated from human leukocyte units by dextran sedimentation as described in Coligan, J. E., et al., Current Protocols in Immunology, ed. R. Coico. Vol. 2. 2002: 2-3. The neutrophils were resuspended in phosphate-buffered saline without calcium or magnesium (BioWhittaker) containing 10 mM HEPES pH 7.2 and plated in 96-well tissue culture plates at a concentration of 1.7×10^6 cells/well. Cells were treated with 50 μM thimerosal (Sigma)/1 mM CaCl2/1 mM MgCl2 for 15 minutes at 37° C. 5% CO2, then treated with Compound A in a final DMSO concentration of 0.01% in duplicate for 10 minutes. Neutrophils were stimulated with 1 μM fMLP for 30 minutes, then lysed by the addition of methanol (20% final concentration) and frozen in a dry ice/isopropanol bath for 10 minutes. Lysates were stored at −70° C. until the LTB4 content was measured by competitive LTB4 ELISA (R&D systems).

In experiment [4] the test system is PDE4 enzyme purified from U937 human monocytic cells. Nature of the experiment: PDE4 inhibition. The format is biochemical. Here is the method:
PDE4 enzyme was purified from U937 human monocytic cells by gel filtration chromatography (Muller et al. 1998, Bioorg. & Med. Chem. Lett. 1998. 8 (19):2669-74). Phosphodiesterase reactions were carried out in 50 MM Tris HCl pH 7.5, 5 mM MgCl2, 1 μM cAMP, 10 nM [^3H]-cAMP for 30 min at 30, terminated by boiling, treated with 1 mg/ml snake venom, and separated using AG-lXS ion exchange resin (BioRad).
as §1

The test system of a further experiment is Lymph node cells (LNC). Nature of the experiment: Lymph node cells of collagen-immunized mice stimulated in vitro with type II collagen or anti-CD3 mAb. The settings on record: FIG. 6. The format is cell-based. An excerpt:
Ex Vivo Procedure: Mice were bled and lymph nodes were excised. Lymph node cells (LNC) were stimulated in vitro with antigen (type II collagen) or mitogen (anti-CD3 mAb) in the presence of Compound A.

Experiment [5] has as its system cAMP in PGE2-stimulated human PBMC. In words: PGE2-induced cAMP elevation in human PBMC. The settings on record: PGE2 10 μM. The format is cell-based. The text has this:
Prostaglandin E2 (PGE2) binds to prostanoid receptors on monocytes, T cells and other leukocytes and consequently elevates intracellular cAMP levels, resulting in inhibition of cellular responses. The combination of PGE2 and a PDE4 inhibitor synergistically elevates cAMP levels in these cell types, and the elevation of cAMP in PBMC caused by PDE4 inhibitors in the presence of PGE2 is proportional to the inhibitory activity of that PDE4 inhibitor.
Human PBMCs were isolated as described above and plated in 96-well plates at 1×10^6 cells per well in RPMI-1640. The cells were pre-treated with Compound A in a final concentration of 2% DMSO in duplicate at 37° C. in a humidified incubator at 5% CO2 for one hour. The cells were then stimulated with PGE2 (10 μM) (Sigma) for one hour. The cells were lysed with HCl, 0.1N final concentration to inhibit phosphodiesterase activity and the plates were frozen at −20° C. The cAMP produced was measured using cAMP (low pH) Immunoassay kit (R&D Systems).

Experiment [6] relates to CD18 expression on neutrophils. In words: fMLF-induced neutrophil CD18 expression. The format is cell-based. The settings on record: Homo sapiens, 0.5 h, 30 nM fMLF, 30 minutes, flow cytometry. The method, then:
(§2) CD18/CD11b (Mac-1) expression on neutrophils was measured with the following modifications. (Derian, C. K., et al., J Immunol, 1995. 154(1): 308-17). Neutrophils were isolated as described above, then resuspended in complete medium at 1×10^6 cells/ml, pretreated with Compound A at 10, 1, 0.1, 0.01, and 0 μM in duplicate at a final DMSO concentration of 0.1% for 10 minutes at 37° C. 5% CO2. Cells were then stimulated with 30 nM fMLF for 30 minutes and then chilled to 4° C. Cells were treated with rabbit IgG (Jackson ImmunoResearch Labs, West Grove, Pa., USA) (10 μg/1×10^6 cells) to block Fc receptors, stained with CD18-FITC and CD11b-PE (Becton Dickinson), and analyzed by flow cytometry on a FACSCalibur. CD18/CD11b expression (mean fluorescence) in the absence of stimulation was subtracted from all samples to obtain inhibition curves and calculate IC50.

The subject of experiment [7] is TNF-α production by synoviocytes from rheumatoid arthritis patients. In words: TNF-α production by human rheumatoid synovial membrane cells. Type of experiment: cell-based. The settings on record: 48 hours culture, ELISA. The method, then:
Human Rheumatoid Synovial Membrane Cell: Rheumatoid synovial membrane tissue samples were processed to dissociate the cells from the matrix by digesting the tissue with Collagenase A and DNAse. The cells were then plated into a 96-well flat-bottom plate at 1×10^6/well in RPMI (10% FCS) and treated with Compound A and controls (in triplicate). The cells were cultured for 48 hours at 37° C. in 5% CO2 before supernatants were harvested and analyzed by ELISA.
Compound A was solubilized under sterile conditions in filter-sterilized dimethyl sulphoxide (DMSO). The vehicle control contained the same concentration of DMSO used as the diluent in the highest concentration of drug used. A combined treatment of anti-TNF-α and IL-1RA, both at 10 μg/ml, was used as a positive control.

In experiment [8] the test system is CD11b expression on neutrophils. In words: fMLF-induced neutrophil CD11b expression. Type of experiment: cell-based. The settings on record: Homo sapiens, 0.5 h, 30 nM fMLF, 30 minutes, flow cytometry. Here is the method: as §2

T1 sequence (P11541 2-856 limits assumed): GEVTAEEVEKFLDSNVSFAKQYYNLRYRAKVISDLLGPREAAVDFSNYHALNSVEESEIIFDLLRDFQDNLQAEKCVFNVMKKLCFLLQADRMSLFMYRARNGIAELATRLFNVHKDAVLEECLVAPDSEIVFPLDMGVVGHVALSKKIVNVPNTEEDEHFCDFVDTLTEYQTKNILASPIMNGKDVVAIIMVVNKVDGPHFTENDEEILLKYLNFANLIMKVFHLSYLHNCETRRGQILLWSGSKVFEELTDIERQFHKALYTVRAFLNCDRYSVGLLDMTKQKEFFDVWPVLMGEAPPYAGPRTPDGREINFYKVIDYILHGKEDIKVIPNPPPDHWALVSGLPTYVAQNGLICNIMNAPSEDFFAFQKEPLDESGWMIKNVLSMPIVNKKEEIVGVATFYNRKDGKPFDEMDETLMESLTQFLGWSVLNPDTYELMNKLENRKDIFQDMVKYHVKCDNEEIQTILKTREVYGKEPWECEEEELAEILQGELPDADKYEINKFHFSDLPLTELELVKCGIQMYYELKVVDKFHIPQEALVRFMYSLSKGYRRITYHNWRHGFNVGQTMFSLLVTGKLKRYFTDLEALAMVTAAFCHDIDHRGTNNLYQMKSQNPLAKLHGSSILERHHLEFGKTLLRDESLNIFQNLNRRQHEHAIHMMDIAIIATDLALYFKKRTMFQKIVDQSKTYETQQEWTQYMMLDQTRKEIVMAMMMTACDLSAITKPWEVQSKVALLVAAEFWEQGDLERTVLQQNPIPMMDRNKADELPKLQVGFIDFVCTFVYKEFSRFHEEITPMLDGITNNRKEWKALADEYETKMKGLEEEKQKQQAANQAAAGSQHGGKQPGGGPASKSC
T1 sequence (P23439 2-850 limits assumed): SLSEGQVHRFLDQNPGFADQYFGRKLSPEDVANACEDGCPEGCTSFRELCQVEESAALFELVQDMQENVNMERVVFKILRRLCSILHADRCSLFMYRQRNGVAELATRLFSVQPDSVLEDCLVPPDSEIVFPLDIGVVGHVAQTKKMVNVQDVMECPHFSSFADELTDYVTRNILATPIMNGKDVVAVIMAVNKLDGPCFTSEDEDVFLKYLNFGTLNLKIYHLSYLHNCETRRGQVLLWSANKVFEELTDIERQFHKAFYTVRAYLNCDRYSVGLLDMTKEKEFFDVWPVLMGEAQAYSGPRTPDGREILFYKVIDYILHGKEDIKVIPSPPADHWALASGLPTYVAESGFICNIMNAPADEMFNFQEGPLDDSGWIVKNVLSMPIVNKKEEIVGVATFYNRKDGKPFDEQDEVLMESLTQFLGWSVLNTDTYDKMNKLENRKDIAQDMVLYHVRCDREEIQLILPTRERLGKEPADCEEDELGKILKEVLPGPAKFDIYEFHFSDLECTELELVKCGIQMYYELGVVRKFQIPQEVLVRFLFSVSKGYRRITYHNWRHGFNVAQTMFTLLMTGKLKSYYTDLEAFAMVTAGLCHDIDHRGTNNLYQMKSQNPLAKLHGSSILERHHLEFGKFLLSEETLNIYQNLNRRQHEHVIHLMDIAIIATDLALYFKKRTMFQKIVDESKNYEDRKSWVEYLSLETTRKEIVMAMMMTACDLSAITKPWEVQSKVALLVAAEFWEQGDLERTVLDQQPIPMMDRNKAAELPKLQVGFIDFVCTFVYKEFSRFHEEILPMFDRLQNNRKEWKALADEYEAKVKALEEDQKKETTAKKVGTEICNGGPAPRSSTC

For the compound `CCOc1cc([C@@H](CS(C)(=O)=O)N2Cc3cccc(NC(=O)C4CC4)c3C2=O)ccc1OC` [Compound A, cyclopropyl-N-{2-[(1S)-1-(3-ethoxy-4-methoxyphenyl)-2-(methylsulfonyl)ethyl]-3-oxoisoindoline-4-yl}carboxamide], the IC50 in [1] is 40 nM; in experiment [3], 10 nM and 0.0047 µg/mL; in [4] (1 μM cAMP), 100 nM; in experiment [6], 23 nM and 0.011 µg/mL; in [7], 100 nM; in [8], 30 nM and 0.014 µg/mL. The inhibition at 10 µM in [2] was 17%. In addition, the “PDE4 IC50 (from U937 cells)” value in experiment [4] (1 μM cAMP) was found to be 0.05 µg/mL. In experiment [4] (at 10 μM), this compound came in with a PDE4 % inhibition of 95%. In the experiment with Lymph node cells (LNC), the “production of the Th2 cytokine IL-5” value is recorded as “unaffected”. In addition, the IFN-γ production result with Lymph node cells (LNC) (dose-dependent) is on record as “inhibited”. Also, in the experiment with Lymph node cells (LNC) (dose-dependent), the T cell proliferation result is on record as “inhibited”. Besides, in the experiment on Lymph node cells (LNC) (dose-dependent), the TNF-α production result is “inhibited”. In addition, the concentration for a half-maximal effect (EC50) in experiment [5] is 6.1 µM and 2.9 µg/mL.

One may read the IC50 as the midpoint of a concentration-inhibition curve. Lower therefore signals greater potency. The term inhibition denotes how much of the control response was suppressed. Read a high inhibition as a strong effect. The EC50 is the concentration giving half of the maximal effect.
